Experimental findings from patent US20100190187A1, “Screening Assays for Antagonists and Analyses of Cardiac Hypertrophy” (The Regents of the University of Michigan Office of …, priority 2006, published 2010) are described below.

The experiment concerns the target T1, VDRtt (Rattus norvegicus, UniProt P13053).
T1 construct: from tissue; host or cells: rat heart ventricle, crude myocardial membranes (7,700-40,000 x g pellet)
T1 sequence (P13053 1-423): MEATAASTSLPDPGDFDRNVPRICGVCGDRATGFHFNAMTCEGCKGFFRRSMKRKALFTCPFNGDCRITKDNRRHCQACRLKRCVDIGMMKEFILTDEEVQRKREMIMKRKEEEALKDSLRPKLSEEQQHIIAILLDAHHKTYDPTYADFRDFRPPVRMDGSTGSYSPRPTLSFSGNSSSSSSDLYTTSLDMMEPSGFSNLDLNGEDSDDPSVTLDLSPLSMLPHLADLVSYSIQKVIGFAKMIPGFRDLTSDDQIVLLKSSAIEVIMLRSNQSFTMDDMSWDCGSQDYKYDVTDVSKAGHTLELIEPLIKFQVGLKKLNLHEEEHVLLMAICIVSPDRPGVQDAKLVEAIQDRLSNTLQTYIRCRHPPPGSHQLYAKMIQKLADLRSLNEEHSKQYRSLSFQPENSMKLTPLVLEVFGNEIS
Nature of the experiment: Competition with [3H] 1α,25(OH)2 vitamin D3 for binding to rat heart membrane preparations. The following applies: radioligand binding experiments, FIGS. 6 and 7. Here is the method:
Crude myocardial membranes were prepared as follows: whole hearts were removed from three month old female Sprague-Dawley rats and were cannulated and perfused two times with 10 mls ice-cold DPBS then once with 3 mls of ice-cold TKED lysis buffer (50 mM Tris-HCl, 150 mM KCl, 1.5 mM EDTA, 10 mM dithiothreitol, pH7.4 and a 1/100 dilution of Sigma Protease Inhibitor Cocktail [P8340]). Ventricles were cut away from atria and connective tissue and then minced, transferred to a 13 ml round-bottom Sarstedt tube and washed two times in 10 mls TKED lysis buffer by spinning briefly at full speed in a clinical centrifuge then aspirating. Tissue was kept ice-cold as much as possible. Washed minced ventricle tissue was then homogenized on ice with a Tekmar Tissuemizer in 5 volumes (˜5 mls) of TKED lysis buffer using 10 strokes at setting 30 followed by 5 strokes at setting 50. The resulting homogenate was transferred to a 15 ml Corex tube and centrifuged in a Beckman JA-20 rotor at 8,000 rpm (7,700 g) for 15 minutes at 4° C. The supernatant was transferred to a new 15 ml Corex tube and centrifuged in a Beckman JA-20 rotor at 18,200 rpm (40,000 g) for 25 minutes at 4° C. The resulting membrane pellet was washed once in a few mls TKED lysis buffer, resuspended in 0.5 mls TKED lysis buffer then homogenized with 3 strokes of a 2 ml Wheaton Potter-Elvejhem tissue grinder.
Ligand binding assays to determine the ability of competitors or test compounds to compete with [^3H] […] 1α,25(OH)2 vitamin D3 (specific activity 176 Ci/mmol) and various concentrations of competitor or test compound. Nonspecific binding is determined in the presence of cold 1α,25(OH)2 Vitamin D3 (2 μM) for vehicle and each competitor or test compound. Assays are performed at room temperature for 60 minutes. Reactants are then filtered over glass fiber filters (Whatman GF-C) and washed three times with 5 mls ice-cold TKEDN binding buffer. […] Tritiated [^3H] 1α,25(OH)2 vitamin D3 can be obtained from G.E. Healthcare and dried using a nitrogen evaporator and resuspended in ethanol. 1α,25(OH)2 Vitamin D3 and competitors or test compounds can be obtained from Sigma-Aldrich and diluted in ethanol. Vitamin D5 was obtained from the University of Illinois and was diluted in ethanol.

With `C=C1/C(=C\C=C2/CCC[C@]3(C)[C@@H]([C@H](C)CCC(O)C(C)(C)O)CC[C@@H]23)C[C@@H](O)CC1O` (stereo partly shown) [1,24,25 trihydroxyvitamin D3], the “binding of vitamin D analogs to VDRtt” value is reported as “binds with various affinities”.
Turning to `C=C1CCC(O)C/C1=C\C=C1\CCCC2(C)C1CCC2C(C)CCC(O)C(C)(C)O` (stereo not shown) [24,25 dihydroxyvitamin D3], the “binding of vitamin D analogs to VDRtt” value was “binds with various affinities”.
The value for `C=C1CC[C@H](O)C/C1=C/C=C1\CCC[C@]2(C)[C@@H]([C@H](C)CCCC(C)(C)O)CC[C@@H]12` [25-hydroxyvitamin D3] was “binds with various affinities”.
Take `C=C1CC[C@H](O)C/C1=C/C=C1\CCC[C@]2(C)[C@@H]([C@H](C)CC[C@@H](CC)C(C)C)CC[C@@H]12` [Vitamin D5]: the “binding of vitamin D analogs to VDRtt” value is “binds with various affinities”.
